Test results: US7141383B2, “EDG8 receptor, its preparation and use” (Sanofi-Aventis Deutschland GmbH, priority 2000, dated 2006)

How the values were obtained:
human EDG8 [1] = molecular target: T1, human EDG8 (Homo sapiens, UniProt Q9H228); assay: FLIPR intracellular Ca2+ mobilization in CHO cells transiently transfected with EDG8; type: cell-based; parameters: The 1197 bp PCR product was cloned into the pCDNA3.1(+) mammalian expression vector; expressed in transfected cells; host or cells: CHO-K1, transient transfection; details: for EDG8-mediated increase in intracellular Ca2+ by lysophospholipid mediators: CHO cells transiently transfected with EDG8 and Gα16 or Gαqi5, lipids at 10, 100, 1000 nM
Method: FIG. 3: Effects of S1P, LPA and related lysophospholipid mediators on EDG8-mediated increase in intracellular Ca^2+. CHO-cells were cotransfected with EDG8 and the G protein α subunits Gqi5 (upper panel) and G16 (lower panel) and rises in [Ca^2+]i were recorded with the FLIPR as described in Experimental procedures. The different lipids were applied in concentrations of 10, 100 and 1000 nM, respectively. Data are means of quadruplicate determinations of a representative experiment.
CHO-K1 cells were grown in basal ISCOVE medium supplemented with 10% fetal bovine serum at 37° C. in a humidified 5% CO2 incubator. For transfections, 2×10^5 cells were seeded into 35-mm dishes. About 24 hr later cells were transiently transfected at 50–80% confluency with the indicated receptor and G-protein constructs (1 μg of plasmid DNA each) using the Lipofectamine transfection reagent and the supplied protocol (GIBCO). 18–24 hr after transfection cells were seeded into 96well plates at a density of 50,000 cells per well and cultured for 18–24 additional hr until used in the functional FLIPR assays.
Twenty-four hours after transfection, cells were splitted into 96-well, black-wall microplates (Corning) at a density of 50,000 cells per well. 18–24 hr later, cells were loaded with 95 μl of HBSS containing 20 mM Hepes, 2.5 mM probenecid, 4 μM fluorescent calcium indicator dye Fluo4 (Molecular Probes) and 1% fetal bovine serum for 1 h (37° C., 5% CO2). Cells were washed three times with HBSS containing 20 mM Hepes and 2.5 mM probenecid in a cell washer. After the final wash, the solution was aspirated to a residual volume of 100 μl per 96 well. Lipid ligands were dissolved in DMSO as 2 mM stock solutions (treated with ultrasound when necessary) and diluted at least 1:100 into HBSS containing 20 mM HEPES, 2.5 mM probenecid and 0.4 mg/ml fatty acid free bovine serum albumine. Lipids were aliquoted as 2× solutions into a 96 well plate prior to the assay. The fluorometric imaging plate reader (FLIPR, Molecular Devices) was programmed to transfer 100 μl from each well of the ligand microplate to each well of the cellplate and to record fluorescence during 3 min in 1 second intervals during the first minute and 3 second intervals during the last two minutes. Total fluorescence counts from the 18-s to 37-s time points are used to determine agonist activity. The instrument software normalizes the fluorescent reading to give equivalent initial readings at time zero.

EDG1 receptor = EDG1 receptor (Homo sapiens, UniProt P21453); assay: FLIPR intracellular Ca2+ mobilization in CHO cells transfected with EDG1; type: cell-based; details: transiently transfected CHO cells; 10, 100, 1000 nM
Method: (§1) FIGS. 2A–F: Mobilization of intracellular Ca^2+ by S1P (10, 100 and 1000 nM) mediated by the EDG1, 3, 5, 6 and 8 receptor in CHO cells, cotransfected with empty vector DNA as a control or the indicated G-protein α subunits.
(§2) A: S1P-induced Ca^2+-response in CHO cells transfected with vector DNA alone or the G protein α subunits Gq, G16 and Gqi5. B-F: S1P-induced Ca^2+-response in CHO cells transfected with the indicated EDG-receptor subtypes. Agonist-mediated changes of intracellular Ca^2+ were measured with the FLIPR using the Ca^2+-sensitive dye FLUO4 as described in Experimental procedures. Fluorescence of transfected cells loaded with FLUO4 was recorded before and after addition of S1P, applied in the indicated concentrations. Data are expressed as means of quadruplicate determinations in a single experiment.
(§3) CHO-K1 cells were grown in basal ISCOVE medium supplemented with 10% fetal bovine serum at 37° C. in a humidified 5% CO2 incubator. For transfections, 2×10^5 cells were seeded into 35-mm dishes. About 24 hr later cells were transiently transfected at 50–80% confluency with the indicated receptor and G-protein constructs (1 μg of plasmid DNA each) using the Lipofectamine transfection reagent and the supplied protocol (GIBCO). […]

EDG5 receptor = molecular target: T2, EDG5 receptor (Homo sapiens, UniProt O95136); assay: FLIPR intracellular Ca2+ mobilization in CHO cells transfected with EDG5; type: cell-based; details: transiently transfected CHO cells; 10, 100, 1000 nM
T2 construct: expressed in transfected cells; host or cells: CHO-K1, transient transfection
Method: as §1, §2, §3

CHO cells = assay: FLIPR intracellular Ca2+ mobilization in CHO cells without EDG receptor (vector or G protein alpha subunits only); type: cell-based, chinese hamster
Method: as §1, §2, §3

EDG3 receptor = EDG3 receptor (Homo sapiens, UniProt Q99500); assay: FLIPR intracellular Ca2+ mobilization in CHO cells transfected with EDG3; type: cell-based; details: transiently transfected CHO cells; 10, 100, 1000 nM
Method: as §1, §2, §3

EDG6 receptor = EDG6 receptor (Homo sapiens, UniProt O95977); assay: FLIPR intracellular Ca2+ mobilization in CHO cells transfected with EDG6; type: cell-based; details: absence of any cotransfected G-protein α subunit
Method: as §1, §2, §3

human EDG8 [2] = molecular target: T1, human EDG8; assay: Effect of inhibitor alone on [Ca2+]i during preincubation, cells cotransfected with human EDG8 and Gαqi5; type: cell-based; parameters: The 1197 bp PCR product was cloned into the pCDNA3.1(+) mammalian expression vector; expressed in transfected cells; details: 3 minutes, before 1 μM S1P
Method: (§4) FIG. 9: Inhibition of S1P mediated intracellular calcium release by suramin and NF023 (8,8′-(carbonylbis(imino-3,1-phenylene))bis-(1,3,5-naphatlenetrisulfonic acid)) in cells transiently cotransfected with human EDG8 and Gαqi5 (A) and rat EDG8 and Gαqi5 (B). […] Cells were then stimulated with 1 μM S1P and in [Ca^2+]i measured with the FLIPR as described in the method section. Peak fluorescence counts were normalized and background responses of Gαqi5-transfected cells were subtracted. S1P-mediated calcium release in the absence of inhibitor was set 100%. Data are means±SE of 4–7 independent experiments.
(§5) Twenty-four hours after transfection, cells were splitted into 96-well, black-wall microplates (Corning) at a density of 50,000 cells per well. […] The fluorometric imaging plate reader (FLIPR, Molecular Devices) was programmed to transfer 100 μl from each well of the ligand microplate to each well of the cellplate and to record fluorescence during 3 min in 1 second intervals during the first minute and 3 second intervals during the last two minutes. Total fluorescence counts from the 18-s to 37-s time points are used to determine agonist activity. The instrument software normalizes the fluorescent reading to give equivalent initial readings at time zero.

rat EDG8 = molecular target: T3, rat EDG8 (Rattus norvegicus, UniProt Q9JKM5); assay: Effect of inhibitor alone on [Ca2+]i during preincubation, cells cotransfected with rat EDG8 and Gαqi5; type: cell-based; details: 3 minutes, before 1 μM S1P
T3 construct: expressed in transfected cells
Method: as §4, §5

T1 sequence (Q9H228 whole entry): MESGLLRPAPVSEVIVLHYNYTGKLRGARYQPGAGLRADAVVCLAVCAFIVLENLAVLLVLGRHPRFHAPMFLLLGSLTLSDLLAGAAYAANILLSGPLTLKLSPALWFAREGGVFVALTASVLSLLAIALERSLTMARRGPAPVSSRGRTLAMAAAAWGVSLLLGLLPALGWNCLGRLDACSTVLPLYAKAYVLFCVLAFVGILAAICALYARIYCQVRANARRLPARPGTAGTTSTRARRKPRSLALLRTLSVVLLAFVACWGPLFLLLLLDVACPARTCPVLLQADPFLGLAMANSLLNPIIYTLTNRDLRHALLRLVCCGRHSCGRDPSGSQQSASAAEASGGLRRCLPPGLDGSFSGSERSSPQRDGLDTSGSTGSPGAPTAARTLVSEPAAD
EDG6 receptor, sequence (O95977 whole entry): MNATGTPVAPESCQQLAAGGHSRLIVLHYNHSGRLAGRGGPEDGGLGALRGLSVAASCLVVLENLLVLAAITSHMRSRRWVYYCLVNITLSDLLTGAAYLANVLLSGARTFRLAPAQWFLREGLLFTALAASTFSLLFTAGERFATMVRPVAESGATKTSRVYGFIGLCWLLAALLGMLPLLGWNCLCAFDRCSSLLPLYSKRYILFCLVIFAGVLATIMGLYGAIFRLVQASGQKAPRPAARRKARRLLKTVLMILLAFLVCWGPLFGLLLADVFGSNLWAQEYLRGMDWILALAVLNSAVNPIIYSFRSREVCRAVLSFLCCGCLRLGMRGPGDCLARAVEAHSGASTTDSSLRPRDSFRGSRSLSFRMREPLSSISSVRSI
T3 sequence (Q9JKM5 whole entry): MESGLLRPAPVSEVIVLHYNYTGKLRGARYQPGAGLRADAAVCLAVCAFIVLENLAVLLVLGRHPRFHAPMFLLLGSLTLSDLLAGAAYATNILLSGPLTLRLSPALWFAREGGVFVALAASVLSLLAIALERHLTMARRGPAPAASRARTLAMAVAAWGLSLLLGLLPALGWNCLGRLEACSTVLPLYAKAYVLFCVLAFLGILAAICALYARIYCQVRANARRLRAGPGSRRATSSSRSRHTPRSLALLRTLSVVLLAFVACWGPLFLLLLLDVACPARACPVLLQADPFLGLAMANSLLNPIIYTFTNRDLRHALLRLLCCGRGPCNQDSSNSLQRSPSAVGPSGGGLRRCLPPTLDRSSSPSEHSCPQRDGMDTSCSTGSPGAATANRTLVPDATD
EDG3 receptor, sequence (Q99500 whole entry): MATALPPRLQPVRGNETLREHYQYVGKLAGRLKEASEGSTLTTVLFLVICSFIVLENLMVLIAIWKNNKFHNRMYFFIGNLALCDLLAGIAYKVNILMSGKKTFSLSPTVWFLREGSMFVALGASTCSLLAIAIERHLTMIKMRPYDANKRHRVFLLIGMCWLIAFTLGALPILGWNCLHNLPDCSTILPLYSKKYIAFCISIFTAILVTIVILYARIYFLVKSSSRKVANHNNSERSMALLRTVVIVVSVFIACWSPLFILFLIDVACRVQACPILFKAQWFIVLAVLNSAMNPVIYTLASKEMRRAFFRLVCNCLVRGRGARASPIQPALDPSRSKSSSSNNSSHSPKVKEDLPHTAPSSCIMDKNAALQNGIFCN
T2 sequence (O95136 whole entry): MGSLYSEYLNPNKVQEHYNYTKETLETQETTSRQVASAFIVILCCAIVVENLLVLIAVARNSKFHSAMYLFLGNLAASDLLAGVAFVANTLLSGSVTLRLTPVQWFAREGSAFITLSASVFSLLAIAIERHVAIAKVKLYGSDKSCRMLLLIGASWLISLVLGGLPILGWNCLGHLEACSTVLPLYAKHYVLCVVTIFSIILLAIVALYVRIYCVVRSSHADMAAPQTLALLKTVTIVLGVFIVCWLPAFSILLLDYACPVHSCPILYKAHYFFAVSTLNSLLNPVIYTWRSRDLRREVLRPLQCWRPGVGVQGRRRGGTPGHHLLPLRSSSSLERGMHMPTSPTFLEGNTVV
EDG1 receptor, sequence (P21453 whole entry): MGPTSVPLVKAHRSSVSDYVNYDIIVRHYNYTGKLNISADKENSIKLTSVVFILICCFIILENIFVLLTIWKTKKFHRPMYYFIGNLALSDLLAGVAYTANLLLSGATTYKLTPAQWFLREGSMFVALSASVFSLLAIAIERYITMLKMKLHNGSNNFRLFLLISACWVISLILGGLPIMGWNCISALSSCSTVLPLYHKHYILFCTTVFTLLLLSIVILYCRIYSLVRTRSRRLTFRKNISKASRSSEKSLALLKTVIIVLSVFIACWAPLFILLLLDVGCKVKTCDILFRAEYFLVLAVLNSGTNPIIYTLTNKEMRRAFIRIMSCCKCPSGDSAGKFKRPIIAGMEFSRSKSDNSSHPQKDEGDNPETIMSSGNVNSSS

## lysophosphatidylcholine [LPC]
Human EDG8 [1]
  EDG8-mediated increase in intracellular Ca2+ by lysophospholipid mediators: failed to generate any significant response in concentrations up to 1 μM

## lysophosphatidic acid [LPA]
Human EDG8 [1]
  EDG8-mediated increase in intracellular Ca2+ by lysophospholipid mediators: evoked [Ca^2+]i increases in concentrations of 100 and 1000 nM

## CCCCCCCCCCCCCCC[C@@H](O)[C@@H](N)COP(=O)(O)O [dHS1P, dihydro sphingosine 1-phosphate]
Human EDG8 [1]
  EDG8-mediated increase in intracellular Ca2+ by lysophospholipid mediators: evoked [Ca^2+]i increases in concentrations of 100 and 1000 nM

## CCCCCCCCCCCCC/C=C/[C@@H](O)[C@@H](N)COP(=O)([O-])OCC[N+](C)(C)C [SPC, sphingosylphosphorylcholine]
Human EDG8 [1]
  EDG8-mediated increase in intracellular Ca2+ by lysophospholipid mediators: failed to generate any significant response in concentrations up to 1 μM

## CCCCCCCCCCCCC/C=C/[C@@H](O)[C@@H](N)COP(=O)(O)O [S1P, sphingosine 1-phosphate]
Human EDG8 [1]
  EDG8-mediated increase in intracellular Ca2+ by lysophospholipid mediators: most potent activator of EDG8
Human EDG8 [1]; CHO cells, EDG8 cotransfected with Gα16 or Gαqi5, 10, 100 and 1000 nM
  S1P-induced Ca2+ mobilization via EDG8: gained the ability to mobilize Ca^2+
Human EDG8 [1]; CHO cells, EDG8 without cotransfected G protein α subunit, 10, 100 and 1000 nM
  S1P-induced [Ca2+]i release via EDG8: did not release [Ca^2+]i
EDG1 receptor
  S1P-induced [Ca2+]i mobilization via EDG1: mobilize [Ca^2+]i in response to S1P
EDG5 receptor
  S1P-induced [Ca2+]i mobilization via EDG5: mobilize [Ca^2+]i in response to S1P
CHO cells; CHO cells transfected with empty vector DNA, 10, 100, 1000 nM
  S1P-induced rise in intracellular Ca2+: None of the applied S1P concentrations was capable of eliciting significant rises in intracellular Ca^2+
CHO cells; Gqi5- and G16-transfected CHO cells, no EDG receptor
  S1P-induced increase in [Ca2+]i: did not give rise to significant increases in [Ca^2+]i
EDG3 receptor
  S1P-induced [Ca2+]i mobilization via EDG3: mobilize [Ca^2+]i in response to S1P
EDG6 receptor
  S1P-induced [Ca2+]i mobilization via EDG6: failed to detect a significant Ca^2+ increase above basal levels

## Cc1ccc(C(=O)Nc2ccc(S(=O)(=O)O)c3cc(S(=O)(=O)O)cc(S(=O)(=O)O)c23)cc1NC(=O)c1cccc(NC(=O)Nc2cccc(C(=O)Nc3cc(C(=O)Nc4ccc(S(=O)(=O)O)c5cc(S(=O)(=O)O)cc(S(=O)(=O)O)c45)ccc3C)c2)c1 [suramin]
Human EDG8 [2]
  Effect on [Ca2+]i mobilization during preincubation period: did not show any effect
Rat EDG8
  Effect on [Ca2+]i mobilization during preincubation period: did not show any effect
